# Measurements from ChEMBL document CHEMBL3865843, “Identification of Ligand Binding Hot Spots of the Histamine H1 Receptor following Structure-Based Fragment Optimization” (J Med Chem, 2016).
# Target: Histamine H1 receptor (Homo sapiens, UniProt P35367)
# Test: biochemical
# Format: cell-based, HEK-293T
# Conditions: not given
# Chain of Histamine H1 receptor (P35367 whole entry): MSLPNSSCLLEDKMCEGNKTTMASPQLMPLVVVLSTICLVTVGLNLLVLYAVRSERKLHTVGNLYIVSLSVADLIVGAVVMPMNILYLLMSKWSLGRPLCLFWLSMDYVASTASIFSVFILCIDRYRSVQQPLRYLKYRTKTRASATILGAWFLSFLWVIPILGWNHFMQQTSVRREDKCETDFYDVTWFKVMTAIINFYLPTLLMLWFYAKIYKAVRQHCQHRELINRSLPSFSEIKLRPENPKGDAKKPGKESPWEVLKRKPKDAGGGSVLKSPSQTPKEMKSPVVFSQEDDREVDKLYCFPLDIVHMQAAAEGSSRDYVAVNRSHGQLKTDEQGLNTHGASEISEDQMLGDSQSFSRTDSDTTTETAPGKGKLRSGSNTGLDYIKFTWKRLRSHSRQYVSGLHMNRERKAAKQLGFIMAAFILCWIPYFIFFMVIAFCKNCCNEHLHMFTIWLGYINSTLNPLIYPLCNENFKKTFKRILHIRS
row,SMILES,Ki
1,c1ccc(OC2CCNCC2)cc1,3980 nM
2,C[N+]1(C)CCC(Oc2ccccc2Cc2ccccc2)CC1,25.1 nM
3,CNCCOc1ccccc1Cc1ccccc1,100 nM
4,NCCOc1ccccc1Cc1ccccc1,1580 nM
5,CNCCCOc1ccccc1Cc1ccccc1,31.6 nM
6,c1ccc(Cc2ccc(OC3CCNCC3)cc2)cc1,10000 nM
7,c1ccc(Cc2cccc(OC3CCNCC3)c2)cc1,1580 nM
8,NCCCOc1ccccc1Cc1ccccc1,316 nM
9,c1ccc(Cc2ccccc2OCCN2CCCCCC2)cc1,63.1 nM
10,c1ccc(-c2ccccc2OC2CCNCC2)cc1,316 nM
11,CN1CCC(Oc2ccccc2)CC1,251 nM

# Now from value to compound:
row,Ki,SMILES
1,15.8 nM,c1ccc(Cc2ccccc2OCCN2CCCC2)cc1
2,12.6 nM,CN(C)CCOc1ccccc1Cc1ccccc1
3,6.31 nM,c1ccc(Cc2ccccc2OCCN2CCC2)cc1
4,25.1 nM,c1ccc(Cc2ccccc2OCCN2CCCCC2)cc1
5,15.8 nM,O=C(O)/C=C/C(=O)O.c1ccc(Cc2ccccc2OC2CCNCC2)cc1
6,20 nM,c1ccc(Cc2ccccc2OCCCN2CCCCCC2)cc1
7,10 nM,c1ccc(Cc2ccccc2OCCCN2CCCC2)cc1
8,12.6 nM,c1ccc(Cc2ccccc2OCCCN2CCCCC2)cc1
9,7.94 nM,c1ccc(Cc2ccccc2OCCCN2CCC2)cc1
10,3.16 nM,CN(C)CCCOc1ccccc1Cc1ccccc1
11,2.51 nM,CN1CCC(Oc2ccccc2Cc2ccc(Cl)cc2)CC1
12,6.31 nM,Clc1ccc(Cc2ccccc2OC2CCNCC2)cc1

# System: not listed separately
# Test: Displacement of [3H]mepyramine from human N-terminal hemagglutinin-tagged histamine H1 receptor I454(7.39)T mutant expressed in HEK293T cells after 4 hrs by microbeta liquid scintillation counting analysis
# Format: cell-based
# Conditions: hek-293t
row,SMILES,pKi
1,O=C(O)/C=C/C(=O)O.c1ccc(Cc2ccccc2OC2CCNCC2)cc1,8
2,CN1CCC(Oc2ccccc2Cc2ccccc2)CC1.O=C(O)/C=C/C(=O)O,8.3

# System: not listed separately
# Test: Displacement of [3H]mepyramine from human N-terminal hemagglutinin-tagged histamine H1 receptor I454(7.39)F mutant expressed in HEK293T cells after 4 hrs by microbeta liquid scintillation counting analysis
# Format: cell-based
# Conditions: hek-293t
row,SMILES,pKi
1,O=C(O)/C=C/C(=O)O.c1ccc(Cc2ccccc2OC2CCNCC2)cc1,7.4
2,CN1CCC(Oc2ccccc2Cc2ccccc2)CC1.O=C(O)/C=C/C(=O)O,8.2
